Patent publication US12692274B2, “Tetrahydroisoquinoline derivatives for the treatment of red blood disorders and inflammatory diseases” (Sanofi, priority 2020, dated 2026)
Values joined by “and” are separate entries in the source; they are usually repeats but may differ in a detail not shown here. Equal entries are not always repeated.

Tests used:
[1] = system: NQO1 activation in BEAS-2B cells; experiment: BEAS-2B cellular MTT assay of NQO1 activation, 0% HSA; assay type: cell-based
How it was run: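 BEAS-2B cells grown in BEBM with BEGM SingleQuots (no GA-1000), kept below 70% confluence, seeded on collagen plates at a density giving 95-100% confluence after 48 h. Plates seeded in medium without HSA (0% HSA condition).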

[2] = system: NQO1 activation in BEAS-2B cells; experiment: BEAS-2B cellular MTT assay of NQO1 activation, 0.3% HSA; assay type: cell-based
How it was run: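 BEAS-2B cells (<70% confluent in culture, BEBM/SingleQuots without GA-1000) seeded in collagen plates with 0.3% or 0% HSA, reaching 95-100% confluency after 48 h at 37 °C, 5% CO2; MTT read-out.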

[3] = molecular target: HIS-Keap1 full length / Biotin-Nrf2 (16-mer) (Homo sapiens, UniProt Q14145); experiment: biochemical
[4] = Homo sapiens, serum free, read-out: BEAS EC50 (nM) serum free
[5] = serum free, read-out: BEAS EC50 (nM) serum free
[6] = Homo sapiens, BEAS+, read-out: BEAS+ EC50
[7] = Homo sapiens, Serum Free W, read-out: BEAS EC50 (nM) Serum Free W
[8] = Serum Free W, read-out: BEAS EC50 (nM) Serum Free W
[9] = BEAS+ W, read-out: BEAS+ W EC50
[10] = Homo sapiens, BEAS+ W, read-out: BEAS+ W EC50

HIS-Keap1 full length / Biotin-Nrf2 (16-mer), sequence (Q14145 whole entry): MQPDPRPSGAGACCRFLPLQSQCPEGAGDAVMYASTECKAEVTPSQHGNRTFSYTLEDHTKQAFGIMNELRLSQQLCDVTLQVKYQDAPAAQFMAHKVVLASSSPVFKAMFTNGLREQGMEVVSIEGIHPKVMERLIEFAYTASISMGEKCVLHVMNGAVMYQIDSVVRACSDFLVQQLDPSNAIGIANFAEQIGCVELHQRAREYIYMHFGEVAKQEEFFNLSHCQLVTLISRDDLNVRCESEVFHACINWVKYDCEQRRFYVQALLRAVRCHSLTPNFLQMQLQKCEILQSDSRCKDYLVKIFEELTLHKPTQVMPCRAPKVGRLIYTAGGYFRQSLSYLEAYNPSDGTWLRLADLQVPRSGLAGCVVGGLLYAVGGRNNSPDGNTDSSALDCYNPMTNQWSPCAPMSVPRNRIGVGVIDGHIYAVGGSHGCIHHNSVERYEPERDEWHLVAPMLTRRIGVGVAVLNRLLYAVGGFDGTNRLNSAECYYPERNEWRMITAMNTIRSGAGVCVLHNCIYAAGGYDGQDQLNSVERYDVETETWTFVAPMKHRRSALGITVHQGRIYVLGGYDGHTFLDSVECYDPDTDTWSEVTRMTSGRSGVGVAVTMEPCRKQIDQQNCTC

SMILES | EC50 [1, 4] [nM] | EC50 [1, 5] [nM] | EC50 ([2]; BEAS+, read-out: BEAS+ EC50) [nM] | EC50 [2, 6] [nM] | IC50 [3] | EC50 [1, 7] [nM] | EC50 [1, 8] | EC50 [2, 9] | EC50 [2, 10] [nM]
Cc1c2ccc3c1nnn3CCCCOCc1ccc(c(F)c1)C(=O)N1CCc3ccc(cc3C1)C2CC(=O)O (centres unmarked) [Compound 387] | 95.9 | 75.2 | 90.3 | 62.6 | 1.5 nM and 1.7 nM |  |  |  | 
Cc1c2ccc3c1nnn3CCCOCCOc1ccc(c(F)c1)C(=O)N1CCc3ccc(cc3C1)[C@@H]2[C@H](C)C(=O)O [Compound 369] | 2010 | 1930 | 2230 | 2080 | 13.2 nM and 14 nM |  |  |  | 
COc1cc2ccc1C(=O)N1CCc3ccc(cc3C1)[C@H](CC(=O)O)c1cnc3c(nnn3CCCCC2)c1C [Compound 89] |  |  |  |  | 0.8 nM and 0.9 nM | 30.6 | 22.8 nM | 48.5 nM | 38.7
O=C(O)CC1c2ccc3c(c2)CN(CC3)C(=O)c2ccc(cn2)CCCCCCn2nnc3c(Cl)c1ccc32 (centres unmarked) [Compound 225] | 169 | 175 | 339 | 303 | 2.5 nM and 2.4 nM |  |  |  | 
O=C(O)CC1c2ccc(nc2)OCCCCCc2ccc(cc2)C(=O)N2CCc3ccc1cc3C2 (centres unmarked) [Compound 300] | 3.1 | 5.4 | 7.9 | 10.8 | < 0.1 nM |  |  |  | 
Cc1c2ccc3c1nnn3CCCCCOc1ccc(cc1)C(=O)N1CCc3ccc(cc3C1)C2CC(=O)O (centres unmarked) [Compound 331] | 47.4 |  |  | 40.3 | 1.7 nM and 4.3 nM and 2.6 nM and 10.9 nM |  |  |  | 
Cc1c2ccc3c1nnn3CCCCCc1cc(F)c(c(F)c1)C(=O)N1CCc3ccc(cc3C1)C2CC(=O)O (centres unmarked) [Compound 263] | 18.3 |  |  | 20.4 | 2.7 nM and 3 nM |  |  |  | 
Cc1c2ccc3c1nnn3CCCCC(F)(F)Oc1ccc(cc1)C(=O)N1CCc3ccc(cc3C1)C2CC(=O)O (centres unmarked) [Compound 304] | 18.3 |  | 29 | 25.1 | < 0.1 nM and 0.2 nM |  |  |  | 
Cc1cc2ccc1C(=O)N1CCc3ccc(cc3C1)C(CC(=O)O)c1cnc3c(nnn3CCCCCC2)c1C (centres unmarked) [Compound 170] | 28.3 | 20.4 | 54.3 | 50.1 | 6.3 nM and 6.5 nM |  |  |  | 
Cc1c2cnc3c1nnn3CCCC/C=C/Cc1ccc(cc1)C(=O)N1CCc3ccc(cc3C1)[C@@H]2CC(=O)O [Compound 353] |  |  |  |  | 0.5 nM | 16.8 | 19.1 nM | 109 nM | 72.3
O=C(O)CC1c2ccc(nc2)OCCCCCCOc2ccc(cc2)C(=O)N2CCc3ccc1cc3C2 (centres unmarked) [Compound 319] | 432 |  |  | 1430 | 99 nM and 106 nM |  |  |  | 
Cc1c2ccc3c1nnn3CC/C=C/Cc1ccc(c(F)c1)C(=O)N1CCc3ccc(cc3C1)C2C(C)C(=O)O (centres unmarked) [Compound 376] |  |  |  |  | 1.3 nM and 1.4 nM | 2.1 | 2.3 nM | 4.5 nM and 5.5 nM | 3.9
Cc1c2ccc3c1nnn3CCCCCc1ccc(cc1F)C(=O)N1CCc3ccc(cc3C1)C2CC(=O)O (centres unmarked) [Compound 267] | 3.9 |  |  | 5.3 | 2.4 nM and 2.3 nM |  |  |  | 
Cc1c2ccc3c1nnn3CCCCCc1ccc3c(c1)nc(n3C)C(=O)N1CCc3ccc(cc3C1)C2CC(=O)O (centres unmarked) [Compound 205] | 318 | 329 | 507 | 372 | 2.7 nM and 3 nM |  |  |  | 
Cc1c2ccc3c1nnn3CCCCCCc1ccc3nc(n(C)c3c1)C(=O)N1CCc3ccc(cc3C1)C2CC(=O)O (centres unmarked) [Compound 192] | 75.6 | 63.7 | 124 | 114 | 7 nM and 6.8 nM |  |  |  | 
O=C(O)CC1c2cnc(nc2)OCCCCc2ccc(c(Cl)c2)C(=O)N2CCc3ccc1cc3C2 (centres unmarked) [Compound 226] | > 10000 |  |  | > 10000 | 245 nM |  |  |  | 
Cc1c2cnc3c1nnn3CCCCCCOc1ccc(c(F)c1)C(=O)N1CCc3ccc(cc3C1)C2CC(=O)O (centres unmarked) [Compound 222] | 17.2 | 14.2 | 38.6 | 47.4 | 1.6 nM and 1.5 nM |  |  |  | 
Cc1c2ccc3c1nnn3CCCCCCc1ccc(cc1OC(F)(F)F)C(=O)N1CCc3ccc(cc3C1)[C@@H]2CC(=O)O [Compound 42] |  |  |  |  | 0.9 nM and 1.4 nM | 8.7 |  | 54.1 nM | 35
Cc1cc2ncc1[C@H](CC(=O)O)c1ccc3c(c1)CN(CC3)C(=O)c1ccc(cc1)COCCCO2 [Compound 78] |  |  |  |  | 7.6 nM and 6 nM | 43 | 59.3 nM | 108 nM | 105
O=C(O)CC1c2cnc(nc2)OCCCCCc2ccc(cc2)C(=O)N2CCc3ccc1cc3C2 (centres unmarked) [Compound 277, 2-(2-oxo-12-oxa-1,14,28-triazapentacyclo[16.5.3.23,6.213,16.021,25]triaconta-3,5,13(28),14,16(27),18(26),19,21(25),29-nonaen-17-yl)acetic Acid] | 459 |  |  | 3350 | 2.5 nM and 1.9 nM and 2.7 nM and 1.7 nM |  |  |  | 

SMILES | EC50 [1, 4] [nM] | EC50 [1, 5] [nM] | EC50 ([2]; BEAS+, read-out: BEAS+ EC50) [nM] | EC50 [2, 6] [nM] | IC50 [3] | EC50 [1, 7] [nM] | EC50 [1, 8] | EC50 [2, 9] | EC50 [2, 10] [nM]
Cc1cc2ccc1C(=O)N1CCc3ccc(cc3C1)C(CC(=O)O)c1ccc3c(nnn3CCCCCC2)c1Cl (centres unmarked) [Compound 171] | 1 | 1.6 | 5.4 | 8.3 | 2.5 nM |  |  |  | 
Cc1cc2ncc1[C@@H]([C@H](C)C(=O)O)c1ccc3c(c1)CN(CC3)C(=O)c1ccc(cc1)C/C=C/CCO2 [Compound 58] |  |  |  |  | 10.9 nM and 8.4 nM | 9.7 | 8.8 nM | 35.1 nM | 26.5
Cc1nc2ccc1C(CC(=O)O)c1ccc3c(c1)CN(CC3)C(=O)c1ccc(cc1)CCCCCO2 (centres unmarked) [Compound 150] | 103 | 147 | 188 | 164 | 113 nM and 106 nM |  |  |  | 
Cc1c2ccc3c1nnn3CCCCCc1ccc(c(F)c1)C(=O)N1CCc3ccc(cc3C1)C2CC(=O)O (centres unmarked) [Compound 266] | 2.1 |  |  | 2.6 | 0.5 nM |  |  |  | 
Cc1nc2ncc1C(CC(=O)O)c1ccc3c(c1)CN(CC3)C(=O)c1ccc(c(Cl)c1)OCCCCO2 (centres unmarked) [Compound 186] | > 10000 |  |  | > 10000 | 527 nM and 289 nM |  |  |  | 
Cc1cc2ncc1[C@@H](CC(=O)O)c1ccc3c(c1)CN(CC3)C(=O)c1c(F)cc(cc1F)CCCCCO2 [Compound 122] |  |  |  |  | 52.8 nM and 42.8 nM | 17.6 | 30.2 nM | 54.2 nM | 47
Cc1c2ccc3c1nnn3CCCCCCOc1ccc(cc1)C(=O)N1CCc3ccc(cc3C1)[C@@H]2[C@H](C)C(=O)O [Compound 179] | 113 | 91.5 | 208 | 235 | 5.7 nM |  |  |  | 
Cc1c2cnc3c1nnn3CCCCCc1cccc3c1cc(n3C)C(=O)N1CCc3ccc(cc3C1)C2CC(=O)O (centres unmarked) [Compound 49] |  |  |  |  | 0.6 nM (2×) and 0.4 nM and 0.5 nM | 27 | 28.8 nM | 93.2 nM | 117
Cc1c2cnc3c1nnn3CCCCCc1cc(F)c(c(F)c1)C(=O)N1CCc3ccc(cc3C1)C2CC(=O)O (centres unmarked) [Compound 168] | 1.3 | 1.2 | 3.4 | 3.7 | 2.2 nM |  |  |  | 
Cc1c2ccc3c1nnn3CCCCCOc1ccc(c3ccccc13)C(=O)N1CCc3ccc(cc3C1)C2CC(=O)O (centres unmarked) [Compound 283] | 450 |  |  | 418 | 1.1 nM and 1.7 nM |  |  |  | 
O=C(O)CC1c2ccc3c(c2)CN(CC3)C(=O)c2ccc(cc2)CCCCCCn2nnc3cc1ccc32 (centres unmarked) [Compound 280] | 108 |  |  | 114 | 2.3 nM (2×) and 2.8 nM (2×) |  |  |  | 
O=C(O)CC1c2ccc3c(c2)CN(CC3)C(=O)c2ccc(c(F)c2F)OCCCCCCn2nnc3cc1ccc32 (centres unmarked) [Compound 320] | 332 |  |  | 462 | < 0.1 nM |  |  |  | 
Cc1c2ccc3c1nnn3CCCCCCc1ccc(nc1)C(=O)N1CCc3ccc(cc3C1)C2CC(=O)O (centres unmarked) [Compound 230] | 384 | 471 | 961 | 1090 | 4.8 nM |  |  |  | 
Cc1c2n(C)c3ccc(cc13)C/C=C\CCCn1nnc3c(C)c(cnc31)[C@@H](CC(=O)O)c1ccc3c(c1)CN(CC3)C2=O [Compound 65] |  |  |  |  | 1.5 nM and 1.6 nM | 3.7 | 2.7 nM | 23.9 nM | 18.4
Cc1c2n(C)c3ccc(cc13)C/C=C\CCCn1nnc3c(C)c(cnc31)[C@H](CC(=O)O)c1ccc3c(c1)CN(CC3)C2=O [Compound 43] |  |  |  |  | 0.2 nM | 4.4 | 4.3 nM and 3.7 nM | 43.5 nM and 37 nM | 42.9
Cc1c2ccc3c1nnn3CCCCCOc1ccc(c(F)c1)C(=O)N1CCc3ccc(cc3C1)[C@H]2CC(=O)O [Compound 259] | 20.2 | 18.7 | 78.5 | 47.6 | 4.1 nM |  |  |  | 
O=C(O)CC1c2ccc3c(c2)CN(CC3)C(=O)c2c(F)cc(cc2F)CCCCCCn2nnc3cc1ccc32 (centres unmarked) [Compound 243] | 40.7 | 48.7 | 104 | 71.8 | 2.6 nM |  |  |  | 
Cc1c2cnc3c1nnn3CCCCCCOc1cc(F)c(c(F)c1)C(=O)N1CCc3ccc(cc3C1)C2CC(=O)O (centres unmarked) [Compound 128] | 14.2 | 12.2 | 20.3 | 17.7 | 1 nM and 1.4 nM | 9.8 | 7.1 nM | 47.2 nM | 31
Cc1cc2ccc1C(=O)N1CCc3ccc(cc3C1)C(CC(=O)O)c1ccc3c(nnn3CCCCCCO2)c1C (centres unmarked) [Compound 297] | 1.8 |  |  | 2.9 | 0.2 nM |  |  |  | 
